In patent US20250302948A1, “DR5 Agonist and IAP Antagonist Combination Therapy” (Inhibrx Biosciences, Inc., priority 2022, published 2025):

Columns and labels:
[1] = test system: SW620; experiment: CellTiter-Glo cell viability, 48 h (Examples 1, 2); format: cell-based; details: Homo sapiens, SW-620
From the text: (§1) Test Article Preparation for INBRX-109.
(§2) Day 2—Test and Control Article Addition.
(§3) Day 4—Viability Measurements. […] Data was graphed in GraphPad Prism 7.

[2] = test system: HT-29; experiment: CellTiter-Glo cell viability, 48 h (Example 1); format: cell-based; details: Homo sapiens
From the text: as §1, §2, §3

[3] = test system: LS411N; experiment: CellTiter-Glo cell viability, 48 h (Example 1); format: cell-based; details: Homo sapiens, LS-411N
From the text: as §1, §2, §3

[4] = test system: SNU-C2B; experiment: CellTiter-Glo cell viability, 48 h (Example 1); format: cell-based; details: Homo sapiens
From the text: as §1, §2, §3

[5] = test system: NCI-H460; experiment: Cytotoxicity on lung cancer cell lines, assay similar to Example 1 (Example 4); details: Homo sapiens
Experimental: (§4) Day 1-Cell Seeding. Monolayer cultures of each cell line were harvested for compound screening as detailed below. Culture medium was aspirated, and the cells were washed once with PBS. Accutase was added and flasks were incubated at 37° C. until cells became detached. An equal volume of complete medium was added to quench the Accutase, and the cells were then pipetted up and down several times to generate a homogenous single cell suspension. The density and viability of cells was determined by Trypan Blue using a TC20 Automated Cell Counter. Experimental cells were resuspended to a concentration of 0.17×10^6/mL in EMEM/10% FBS/Anti-Anti media (complete EMEM) and seeded in the inner wells of 384-well luminescence plates at 15 μL/well (2,500/well final). Each cell line was plated in duplicate on separate plates. […]
(§5) Day 4—Viability Measurements. […] Any visible bubbles were removed with 100% ethanol vapor, then luminescence (RLU) was read on the Spectra Max M5e plate reader, using the 384-well opaque plate setting and SoftMaxPro v5.4 software with an integration time of 50 milliseconds. To determine the effect of test articles on cell viability, raw RLU values were exported to Excel and percent survival was calculated as a percentage of vehicle control (0.2% DMSO in EMEM), where the vehicle control is set at 100%. […]

[6] = test system: HCC2935; experiment: as above; details: Homo sapiens
Experimental: as §4, §5

[7] = test system: NCI-H23; experiment: as above; details: Homo sapiens
Experimental: as §4, §5

[8] = test system: NCI-H2452; experiment: as above; details: Homo sapiens
Experimental: as §4, §5

[9] = test system: A549; experiment: as above; details: Homo sapiens
Experimental: as §4, §5

[10] = test system: CAL-120; experiment: Cytotoxicity on breast cancer cell lines, assay similar to Example 3 (Example 4); details: Homo sapiens
Experimental: (§6) Two duplicate plates were set up for day 0 reading (T0) and for reading at the end point (T48).
(§7) To generate a 10× working dilution plate of the small molecules, a 1:100 dilution was performed from the 1000× plate into the appropriate media.
(§8) Day 2—Compound Treatment. […] The plates were then incubated in a 37° C. humidity-controlled tissue culture incubator (5% CO2).
(§9) 20 μL culture medium containing 1% DMSO and 50 μL CellTiter-Glo® Reagent was added to each well of the TO plates and the contents mixed, plate was incubated at room temperature for 30 min, and read on an En Vision Multi Label Reader.
(§10) Day 4—Viability Measurements. 50 μL CellTiter-Glo® Reagent was added to each well of the T48 plates and the contents mixed, plate was incubated at room temperature for 30 min, and read on an EnVision Multi Label Reader. The formula for calculating percent survival is: % survival=(LumTest article−LumMedium control)/(LumNone treated−LumMedium control)×100%. Percent cytotoxicity was calculated by subtracting the % survival from 100.

[11] = test system: MX; experiment: as above
Experimental: as §6, §7, §8, §9, §10

[12] = test system: BT-20; experiment: as above; details: Homo sapiens
Experimental: as §6, §7, §8, §9, §10

[13] = test system: BT-549; experiment: as above; details: Homo sapiens
Experimental: as §6, §7, §8, §9, §10

[14] = test system: HCC1937; experiment: as above; details: Homo sapiens
Experimental: as §6, §7, §8, §9, §10

[15] = test system: SUM159PT; experiment: as above; details: Homo sapiens, SUM-159-PT
Experimental: (§11) Day 1—Cell Seeding. Monolayer cultures of each cancer cell line (see Table 7) were harvested during the logarithmic growth period. The density and viability of cells was determined by Trypan Blue using a Vi cell counter, cells were diluted in the appropriate growth media (see Table 7) and 90 μL cell suspensions were added to 96-well plates for compound screening as detailed below. Two duplicate plates were set up for day 0 reading (T0) and for reading at the end point (T48).
as §7, §8, §9
(§12) Day 4—Viability Measurements. 50 μL CellTiter-Glo® Reagent was added to each well of the T48 plates and the contents mixed, plate was incubated at room temperature for 30 min, and read on an EnVision Multi Label Reader. […] Percent cytotoxicity was calculated by subtracting the % survival from 100.

[16] = test system: HCC70; experiment: as above; details: Homo sapiens
Experimental: as §11, §7, §8, §9, §12

[17] = test system: HCC1806; experiment: as above; details: Homo sapiens
Experimental: as §11, §7, §8, §9, §12

[18] = test system: HCC1187; experiment: as above; details: Homo sapiens
Experimental: as §11, §7, §8, §9, §12

[19] = test system: DU4475; experiment: as above; details: Homo sapiens, DU-4475
Experimental: as §11, §7, §8, §9, §12

[20] = test system: CAL-51; experiment: as above; details: Homo sapiens
Experimental: (§13) Day 1—Cell Seeding. […] Two duplicate plates were set up for day 0 reading (T0) and for reading at the end point (T48).
as §7, §8, §9, §10

[21] = test system: HCC1395; experiment: as above; details: Homo sapiens
Experimental: as §13, §7, §8, §9, §10

[22] = test system: HS 578T; experiment: as above; details: Homo sapiens
Experimental: as §13, §7, §8, §9, §10

[23] = test system: CAL-78; experiment: Cytotoxicity on chondrosarcoma cell lines, assay similar to Example 1 (Example 4)
Experimental: as §4, §5

[24] = test system: OUMS-27; experiment: as above
Experimental: as §4, §5

[25] = test system: SW1353; experiment: as above; details: Homo sapiens
Experimental: as §4, §5

[26] = test system: H-EMC-SS; experiment: as above
Experimental: as §4, §5

[27] = test system: NCI-N87; experiment: Cytotoxicity on gastric cancer cell lines, assay similar to Example 1 (Example 4); details: Homo sapiens
Experimental: as §4
(§14) Day 4—Viability Measurements. […] Any visible bubbles were removed with 100% ethanol vapor, then luminescence (RLU) was read on the Spectra Max M5e plate reader, using the 384-well opaque plate setting and SoftMaxPro v5.4 software with an integration time of 50 milliseconds. To determine the effect of test articles on cell viability, raw RLU values were exported to Excel and percent survival was calculated as a percentage of vehicle control (0.2% DMSO in EMEM), where the vehicle control is set at 100%.

[28] = test system: SNU-5; experiment: as above; details: Homo sapiens
Experimental: as §4, §14

[29] = test system: SNU-1; experiment: as above; details: Homo sapiens, SNU1
Experimental: as §4, §14

[30] = test system: AsPC-1; experiment: Cytotoxicity on pancreatic cancer cell lines, assay similar to Example 1 (Example 4); details: Homo sapiens, ASPC1
Experimental: as §4, §14

[31] = test system: Panc-1; experiment: as above; details: Homo sapiens
Experimental: as §4, §14

[32] = test system: MIA-PaCa-2; experiment: as above; details: Homo sapiens
Experimental: as §4, §5

[33] = test system: SW1990; experiment: as above; details: Homo sapiens
Experimental: as §4, §5

SMILES: CC[C@H](NC(=O)[C@H](C)NC)C(=O)N1C[C@@H](O)C[C@H]1Cc1c(-c2[nH]c3cc(F)ccc3c2C[C@@H]2C[C@H](O)CN2C(=O)[C@H](CC)NC(=O)[C@H](C)NC)[nH]c2cc(F)ccc12 [Birinapant, birinapant]
- cytotoxicity at 5 µM [1]: 11.7%
- cytotoxicity at 5 µM [2]: 20.4%
- cytotoxicity at 5 µM [3]: 14.3%
- cytotoxicity at 5 µM [4]: 71.1%
- cytotoxicity at 2 µM [5]: 6.55%
- cytotoxicity at 2 µM [6]: 13.9%
- cytotoxicity at 2 µM [7]: 9.3%
- cytotoxicity at 2 µM [8]: 6.11%
- cytotoxicity at 2 µM [9]: 11.3%
- cytotoxicity at 3.16 µM [10]: 2.75%
- cytotoxicity at 3.16 µM [11]: -7.11%
- cytotoxicity at 3.16 µM [12]: 6.51%
- cytotoxicity at 3.16 µM [13]: 6.85%
- cytotoxicity at 3.16 µM [14]: -2.77%
- cytotoxicity at 3.16 µM [15]: -1.7%
- cytotoxicity at 3.16 µM [16]: 34%
- cytotoxicity at 3.16 µM [17]: 5.17%
- cytotoxicity at 3.16 µM [18]: 36%
- cytotoxicity at 3.16 µM [19]: 14.3%
- cytotoxicity at 3.16 µM [20]: 2.35%
- cytotoxicity at 3.16 µM [21]: 8.93%
- cytotoxicity at 3.16 µM [22]: 12.7%
- cytotoxicity at 2 µM [23]: 14%
- cytotoxicity at 2 µM [24]: -0.15%
- cytotoxicity at 2 µM [25]: 0.1%
- cytotoxicity at 2 µM [26]: 31.1%
- cytotoxicity at 2 µM [27]: 1.82%
- cytotoxicity at 2 µM [28]: 59.6%
- cytotoxicity at 2 µM [29]: 7.62%
- cytotoxicity at 2 µM [30]: 9.46%
- cytotoxicity at 2 µM [31]: 11.7%
- cytotoxicity at 2 µM [32]: 9.17%
- cytotoxicity at 2 µM [33]: 10.4%
